Consider 28 molecules from patent US10844023B2 (Washington University, priority 2017, dated 2020).

The subject of the assay is Mfn2 null MEFs. Kind of assay: Mitochondrial elongation (aspect ratio) fusogenicity assay. The class given is cell-based, mouse. The arrangement: % long compare to B: dose or concentration left out as unconfirmed. The conditions noted are these: mitochondrial elongation relative to Cpd B (B01 = 100); Mfn2 null MEFs, compound overnight as printed (FIG. 48). An excerpt: A cultured murine embryonic fibroblast assay system was used in which mitochondrial elongation (an increase in aspect ratio) reflects enhanced mitochondrial fusion.
A pharmacophore model was generated based on the interactions of HR1 and HR2 domains in the calculated structural model of Mfn2 in the closed conformation. The key features included hydrophobic interactions involving Mfn2 HR1: Val372 and Met376, and aromatic interactions and hydrogen bonding involving Mfn2 HR1 His380. […] A library comprising ˜14 million commercially available compounds was prepared in silico and evaluated using PHASE to fit these criteria. Top ranked hits were clustered, and filtered based on pharmacological properties using Qikprop. The top 55 (see TABLE 4) commercially available small molecules conforming to the model were selected for functional screening and purchased in 1 mg aliquots. […] Images were acquired by confocal microscopy. Each compound was scored for fusogenicity (see e.g., FIG. 24A) and % cell death (see e.g., FIG. 24B).
Cells were excited with 408 nm (Hoechst), […] (MitoTracker Green and Calcein AM, GFP), or 637 nm (TMRE, MitoTracker Orange, Ethidium homodimer-1, and AF594-Dextran) laser diodes. For mitochondrial elongation studies mitochondrial aspect ratio (long axis/short axis) was calculated using automated edge detection and Image J software. Mitochondrial depolarization was calculated as % of green mitochondria visualized on MitoTracker Green and TMRE merged images, expressed as green/(green+yellow mitochondria)×100.
As to `CC(Sc1nnc(-c2cccs2)n1C1CC1)C(=O)Nc1sc2c(c1C(N)=O)CCC2` (stereo not shown) [1-C12, 2-(2-{[4-cyclopropyl-5-(thiophen-2-yl)-4H-1,2,4-triazol-3-yl]-sulfanyl}propanamido)-4H,5H,6H-cyclopenta[b]-thiophene-3-carboxamide], the “% long compare to B” value was 13%.
As for `CCC(c1nnc(SCC(=O)Nc2sc3c(c2C(N)=O)CCC3)n1Cc1ccccc1)N(C)C` (stereo not shown) [1-D1, 2-[2-({4-benzyl-5-[1-(dimethyl-amino)propyl]-4H-1,2,4-triazol-3-yl}sulfanyl)acetamido]-4H,5H,6H-cyclopenta[b]thio-phene-3-carboxamide], the “% long compare to B” value was 23%.
The result for `COc1ccc(-n2cnnc2SCC(=O)Nc2sc3c(c2C(N)=O)CCC3)cc1` [1-D2, 2-(2-{[4-(4-methoxyphenyl)-4H-1,2,4-triazol-3-yl]sul-fanyl}acetamido)-4H,5H,6H-cyclopenta[b]thiophene-3-carboxamide] reads 128%; that for `O=C(CSc1nnc2n1CCCCC2)Nc1sc2c(c1C(=O)NCc1ccccc1)CCCC2` [1-D4, N-benzyl-2-(2-{5H,6H,7H,8H,9H-[1,2,4]triazolo[4,3-a]azepin-3-ylsulfanyl}acetamido)-4,5,6,7-tetrahydro-1-benzothiophene-3-carboxamide], 105%.
As for `CC(Sc1nnc(-c2ccccc2)n1Cc1ccco1)C(=O)Nc1sc2c(c1C(N)=O)CCC2` (stereo not shown) [1-D7, 2-[2-({4-[(furan-2-yl)methyl]-5-phenyl-4H-1,2,4-triazol-3-yl}sulfanyl)propanamido]-4H,5H,6H-cyclopenta[b]thio-phene-3-carboxamide], the “% long compare to B” value was found to be 92%.
Consider `Cn1c(CC2CCS(=O)(=O)C2)nnc1SCC(=O)Nc1sc2c(c1C(N)=O)CCC2` (stereo not shown) [1-D9, 2-[2-({5-[(1,1-dioxo-1λ^6-thiolan-3-yl)methyl]-4-methyl-4H-1,2,4-triazol-3-yl}sulfanyl)acetamido]-4H,5H,6H-cyclopenta-[b]thiophene-3-carboxamide], for which the “% long compare to B” value is 5%.
The figure for `CCn1c(SCC(=O)Nc2sc3c(c2C(N)=O)CCC(C)C3)nnc1C1CC1` (stereo not shown) [1-D11, 2-{2-[(5-cyclopropyl-4-ethyl-4H-1,2,4-triazol-3-yl)sulfanyl]acetamido}-6-methyl-4,5,6,7-tetrahydro-1-benzothiophene-3-carboxamide] is 6%.
The result for `CC(Sc1nnc2n1CCCCC2)C(=O)Nc1sc2c(c1C(N)=O)CCC2` (stereo not shown) [1-D12, 2-(2-{5H,6H,7H,8H,9H-[1,2,4]triazolo[4,3-a]azepin-3-ylsulfanyl}propanamido)-4H,5H,6H-cyclopenta[b]-thiophene-3-carboxamide] reads 18%; that for `C=CCn1c(SCC(=O)Nc2sc3c(c2C(N)=O)CCC3)nnc1C1CCCCC1` [1-E1, 2-(2-{[5-cyclohexyl-4-(prop-2-en-1-yl)-4H-1,2,4-triazol-3-yl}sulfanyl]acetamido)-4H,5H,6H-cyclopenta[b]thio-phene-3-carboxamide], 38%; that for `COc1ccccc1-n1cnnc1SCC(=O)Nc1sc2c(c1C(N)=O)CCC2` [1-E2, 2-(2-{[4-(2-methoxyphenyl)-4H-1,2,4-triazol-3-yl]sulfanyl}acet-amido)-4H,5H,6H-cyclopenta-[b]thiophene-3-carboxamide], 17%.
For the molecule `CC1CCc2c(sc(NC(=O)CSc3nnc(C4CC4)n3Cc3ccccc3)c2C(N)=O)C1` (stereo not shown) [1-E3, 2-{2-[(4-benzyl-5-cyclopropyl-4H-1,2,4-triazol-3-yl)sulfanyl]acetamido}-6-methyl-4,5,6,7-tetrahydro-1-benzothiophene-3-carboxamide], the “% long compare to B” value is 11%.
As for `COc1ccc(NC(=O)c2c(NC(=O)CSc3nnc(C4CC4)n3C)sc3c2CCCC3)cc1` [1-E4, 2-{2-[(5-cyclopropyl-4-methyl-4H-1,2,4-triazol-3-yl)sulfanyl]acetamido}-N-(4-methoxyphenyl)-4,5,6,7-tetrahydro-1-benzothiophene-3-carboxamide], the “% long compare to B” value was found to be 17%.
Take `NC(=O)c1c(NC(=O)CSc2nnc(C3CC3)n2-c2ccccc2)sc2c1CCCC2` [1-E5, 2-{2-[(5-cyclopropyl-4-phenyl-4H-1,2,4-triazol-3-yl)sulfanyl]-acetamido}-4,5,6,7-tetrahydro-1-benzothiophene-3-carboxamide]: the “% long compare to B” value was −3%.
The result for `CCn1c(SCC(=O)Nc2sc3c(c2C(=O)NCc2ccccc2)CCCC3)nnc1C1CC1` [1-E6, N-benzyl-2-{2-[(5-cyclopropyl-4-ethyl-4H-1,2,4-triazol-3-yl)sulfanyl]acetamido}-4,5,6,7-tetrahydro-1-benzothiophene-3-carboxamide] reads 10%.
The result for `Cc1ccccc1-c1nnc(SCC(=O)Nc2sc3c(c2C(N)=O)CCC3)n1C` [1-E7, 2-(2-{[4-methyl-5-(2-methyl-phenyl)-4H-1,2,4-triazol-3-yl]sulfanyl}acetamido)-4H,5H,6H-cyclopenta[b]-thiophene-3-carboxamide] reads 9%; that for `CC(Sc1nccn1-c1cccc(F)c1)C(=O)Nc1sc2c(c1C(N)=O)CCC2` (stereo not shown) [1-E8, 2-(2-{[1-(3-fluorophenyl)-1H-imidazol-2-yl]sulfanyl}pro-panamido)-4H,5H,6H-cyclo-penta[b]thiophene-3-carboxamide], 5%.
On to `CC(Sc1nnc(CC2CCS(=O)(=O)C2)n1C)C(=O)Nc1sc2c(c1C(N)=O)CCC2` (stereo not shown) [1-E9, 2-[2-({5-[(1,1-dioxo-1λ^6-thiolan-3-yl)methyl]-4-methyl-4H-1,2,4-triazol-3-yl}sulfanyl)propanamido]-4H,5H,6H-cyclopenta[b]thio-phene-3-carboxamide], for which the “% long compare to B” value stood at 0%.
The figure for `Cc1cccc(-n2ccnc2SC(C)C(=O)Nc2sc3c(c2C(N)=O)CCC3)c1C` (stereo not shown) [1-E10, 2-(2-{[1-(2,3-dimethylphenyl)-1H-imidazol-2-yl]sulfanyl}pro-panamido)-4H,5H,6H-cyclo-penta[b]thiophene-3-carboxamide] is 21%.
On to `NC(=O)c1c(NC(=O)CSc2nnc(-c3ccco3)n2-c2ccccc2)sc2c1CCC2` [1-F1, 2-(2-{[5-(furan-2-yl)-4-phenyl-4H-1,2,4-triazol-3-yl]sulfanyl}-acetamido)-4H,5H,6H-cyclo-penta[b]thiophene-3-carboxamide], for which the “% long compare to B” value is recorded as 21%.
The result for `C=CCn1c(SCC(=O)Nc2sc3c(c2C(N)=O)CCC3)nnc1-c1ccccc1` [1-F2, 2-(2-{[5-phenyl-4-(prop-2-en-1-yl)-4H-1,2,4-triazol-3-yl]sulfanyl}acetamido)-4H,5H,6H-cyclopenta[b]thio-phene-3-carboxamide] reads −10%; that for `Cc1ccc(-n2c(C)nnc2SCC(=O)Nc2sc3c(c2C(N)=O)CCC3)cc1` [1-F3, 2-(2-{[5-methyl-4-(4-methylphenyl)-4H-1,2,4-triazol-3-yl]sulfanyl}acetamido)-4H,5H,6H-cyclopenta[b]-thiophene-3-carboxamide], 13%; that for `COc1ccccc1-n1c(C)nnc1SCC(=O)Nc1sc2c(c1C(N)=O)CCCC2` [1-F4, 2-(2-{[4-(2-methoxyphenyl)-5-methyl-4H-1,2,4-triazol-3-yl]sulfanyl}acetamido)-4,5,6,7-tetrahydro-1-benzothiophene-3-carboxamide], 22%.
The result for `CCn1c(SCC(=O)Nc2sc3c(c2C(N)=O)CCCC3)nnc1C1CC1` [1-F5, 2-{2-[(5-cyclopropyl-4-ethyl-4H-1,2,4-triazol-3-yl)sulfanyl]acet-amido}-4,5,6,7-tetrahydro-1-benzothiophene-3-carboxamide] reads −7%; that for `CC(c1nnc(SCC(=O)Nc2sc3c(c2C(N)=O)CCC3)n1-c1ccc(F)cc1)N(C)C` (stereo not shown) [1-F6, 2-[2-({5-[1-(dimethylamino)ethyl]-4-(4-fluorophenyl)-4H-1,2,4-triazol-3-yl}sulfanyl)acetamido]-4H,5H,6H-cyclopenta[b]thio-phene-3-carboxamide], 30%.
The result for `CC(Sc1nnc(-c2cccs2)n1-c1ccccc1)C(=O)Nc1sc2c(c1C(N)=O)CCC2` (stereo not shown) [1-F7, 2-(2-{[4-phenyl-5-(thiophen-2-yl)-4H-1,2,4-lriazol-3-yl]sul-fanyl}propanamido)-4H,5H,6H-cyclopenta[b]thiophene-3-carboxamide] reads −26%; that for `CC(Sc1nnc(-c2c[nH]c3ccccc23)n1C1CC1)C(=O)Nc1sc2c(c1C(N)=O)CCC2` (stereo not shown) [1-F8, 2-(2-{[4-cyclopropyl-5-(1H-indol-3-yl)-4H-1,2,4-triazol-3-yl]sulfanyl}propanamido)-4H,5H,6H-cyclopenta[b]-thiophene-3-carboxamide], 2%; that for `C=CCn1c(SCC(=O)Nc2sc3c(c2C(N)=O)CCCC3)nnc1C1CC1` [1-F9, 2-(2-{[5-cyclopropyl-4-(prop-2-en-1-yl)-4H-1,2,4-triazol-3-yl]sulfanyl}acet-amido)-4,5,6,7-tetrahydro-1-benzothiophene-3-carboxamide], 202%.
As to `CC(Sc1nnc(-c2cccnc2)n1Cc1ccco1)C(=O)Nc1sc2c(c1C(N)=O)CCC2` (stereo not shown) [1-F10, 2-[2-({4-[(furan-2-yl)methyl]-5-(pyridin-3-yl)-4H-1,2,4-triazol-3-yl}sulfanyl)propanamido]-4H,5H,6H-cyclopenta[b]-thiophene-3-carboxamide], the “% long compare to B” value was determined as 29%.
